According to EP2181708A1, “Use of Valproate for reducing CHOP levels, particularly in a mammal having SCI” (Universitat Autonoma de Barcelona, priority 2008, dated 2010):

Tests used:
P-eIF2α = experiment: Western blot of phospho-eIF2α in spinal cord after contusion SCI; format: in vivo, Sprague-Dawley rats; conditions: whether higher in VPA-treated injured spinal cords than in vehicle-treated ones
Protocol: Adult females Sprague-Dawley rats aged 11 weeks (220-250 g) were anesthetized with pentobarbital (40 mg/kg i.p.). When unresponsive, the vertebral column was exposed and a laminectomy carried out at T8-T9 levels. Rostral T7 and caudal T10 vertebral bodies were clamped with Adson stabilizing forceps, and carefully adjusted to level the spinal cord in the horizontal plane. A contusion injury was performed using the Infinite Horizon impactor device (Precision Scientific Instruments, Lexington, KY). The stainless steel impounder tip was placed at 3-4 mm above the exposed spinal cord, and then a fast impact produced applying forces of 150 or 250 kilodynes (KDyn) to the exposed spinal cord. The wound was sutured with 5-0 silk thread in the muscular plane and the skin was closed with small clips and disinfected with povidone iodine solution. Sham-operated animals received the same surgical procedure but sustained no impact injury; the spinal cord was left exposed for 5 min. […]
Rats were re-anesthetised and decapitated at 3 dpo for sample preparation. […] After clearance, protein concentration was measured by the BCA method assay (BCA Protein Assay kit, Pierce). […] The membrane was visualized by enhanced chemiluminiscence (ECL) method and the images analyzed with Gene Snap and Gene Tools software, and Gene Genome apparatus (Syngene). […]

CHOP = experiment: Tunicamycin-induced ER stress in primary fibroblasts, Western blot of CHOP; format: cell-based, rat; conditions: primary fibroblast cells, 3 µg/ml tunicamycin, valproate
Protocol: Primary fibroblasts obtained from rat sciatic nerve and HEK cell line were cultured in Dulbecco's modified Eagle's/F-12 medium supplemented with 10% fetal calf serum (Gibco). Fibroblasts were treated with 3 µg/mL of tunicamycin (Sigma) for 4 h and harvested in RIPA buffer for protein extraction.
We have recently reported that SCI triggers an unbalanced UPR characterized by unchanged levels of BiP/Grp78 levels but progressive accumulation of the pro-apoptotic protein CHOP, with maximal CHOP levels found at 3 days post-injury in the weight-drop contusion model (Penas et al, 2007). In this study, we used a contusion model using an impactor device to specifically control the force (either 150 KDyn or 250 KDyn) to be apply on the T8 laminectomized spinal cord segment. We analyzed the spinal cord 8 mm-length segment that includes the lesion epicenter from sham-operated animals and from VPA treated or vehicle treated SCI animals at 3 days after operation. […] Thus, we increased the amount of VPA administered to 300 mg/kg every 12 h, as reported previously for a brain stroke rat model (Kim et al, 2007), and analyzed the effect using two different contusion forces of 150 and 250 KDyn. We observed that the levels of CHOP were directly proportional to the severity of the lesion; the more severe, the higher the level. […]

Question: Which results are given for `CCCC(CCC)C(=O)O` [VPA, 2-propylpentanoic acid]?
Answer: levels of P-eIF2α (P-eIF2α): not; CHOP accumulation promoted by tunicamycin (CHOP): can be attenuated
